Reference: the supplement of paper PMC8612539
Converted amounts (≈) assume the structure as drawn.

Tested on: Mannheimia haemolytica
Assay: minimum inhibitory concentration (MIC)
Method: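 Broth microdilution MIC (Sensititre BOPO7F bovine plate, CLSI methods) of 19 antimicrobials against field isolates of P. multocida, M. haemolytica, H. somni (deep nasopharyngeal swabs) and E. coli, Enterococcus spp. (rectal swabs) from weaned dairy heifers. Incubation 16-24 h at 35 C. MIC is the lowest concentration preventing visible growth. Values with <= or > lie at the tested range limits. Trimethoprim-sulfamethoxazole is given as the trimethoprim component of a 1:19 mixture.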

CCC[C@@H]1C[C@@H](C(=O)N[C@@H]([C@H]2O[C@H](SC)[C@H](O)[C@@H](O)[C@H]2O)[C@H](C)Cl)N(C)C1 [Clindamycin]
Details | minimum inhibitory concentration [mg/L]
isolate (source animal id): 8 | 16 (≈ 37.6 µM)
isolate (source animal id): 13 | 16 (≈ 37.6 µM)
isolate (source animal id): 18 | 16 (≈ 37.6 µM)
isolate (source animal id): 21 | 16 (≈ 37.6 µM)
isolate (source animal id): 25 | > 16
isolate (source animal id): 27 | 16 (≈ 37.6 µM)
isolate (source animal id): 28 | 16 (≈ 37.6 µM)
isolate (source animal id): 30 | 16 (≈ 37.6 µM)
isolate (source animal id): 31 | 16 (≈ 37.6 µM)
isolate (source animal id): 32 | 8 (≈ 18.8 µM)
isolate (source animal id): 34 | 16 (≈ 37.6 µM)
isolate (source animal id): 36 | 16 (≈ 37.6 µM)
isolate (source animal id): 37 | 16 (≈ 37.6 µM)
isolate (source animal id): 40 | 8 (≈ 18.8 µM)
isolate (source animal id): 41 | 16 (≈ 37.6 µM)
isolate (source animal id): 43 | 16 (≈ 37.6 µM)
isolate (source animal id): 46 | 16 (≈ 37.6 µM)
isolate (source animal id): 49 | 16 (≈ 37.6 µM)
isolate (source animal id): 50 | 16 (≈ 37.6 µM)
isolate (source animal id): 51 | 16 (≈ 37.6 µM)
isolate (source animal id): 52 | 16 (≈ 37.6 µM)
isolate (source animal id): 53 | 8 (≈ 18.8 µM)
isolate (source animal id): 55 | 8 (≈ 18.8 µM)
isolate (source animal id): 56 | 16 (≈ 37.6 µM)
isolate (source animal id): 57 | > 16
isolate (source animal id): 100 | 16 (≈ 37.6 µM)
isolate (source animal id): 103 | 16 (≈ 37.6 µM)
isolate (source animal id): 107 | 16 (≈ 37.6 µM)
isolate (source animal id): 108 | 16 (≈ 37.6 µM)
isolate (source animal id): 112 | > 16
isolate (source animal id): 113 | > 16
isolate (source animal id): 121 | > 16
isolate (source animal id): 122 | 16 (≈ 37.6 µM)
isolate (source animal id): 123 | > 16
isolate (source animal id): 126 | > 16
isolate (source animal id): 133 | > 16
isolate (source animal id): 135 | > 16
isolate (source animal id): 138 | > 16
isolate (source animal id): 141 | > 16
isolate (source animal id): 142 | > 16
isolate (source animal id): 145 | 8 (≈ 18.8 µM)
isolate (source animal id): 149 | 8 (≈ 18.8 µM)
isolate (source animal id): 151 | 8 (≈ 18.8 µM)
isolate (source animal id): 152 | 16 (≈ 37.6 µM)
isolate (source animal id): 154 | 8 (≈ 18.8 µM)
isolate (source animal id): 159 | > 16
isolate (source animal id): 162 | > 16
isolate (source animal id): 170 | 16 (≈ 37.6 µM)
isolate (source animal id): 171 | 8 (≈ 18.8 µM)
isolate (source animal id): 172 | 16 (≈ 37.6 µM)
isolate (source animal id): 173 | 16 (≈ 37.6 µM)
isolate (source animal id): 179 | 8 (≈ 18.8 µM)
isolate (source animal id): 180 | 16 (≈ 37.6 µM)
isolate (source animal id): 183 | 16 (≈ 37.6 µM)
isolate (source animal id): 186 | 8 (≈ 18.8 µM)
isolate (source animal id): 187 | 16 (≈ 37.6 µM)
isolate (source animal id): 188 | 16 (≈ 37.6 µM)
isolate (source animal id): 190 | 16 (≈ 37.6 µM)
isolate (source animal id): 191 | 16 (≈ 37.6 µM)
isolate (source animal id): 192 | 8 (≈ 18.8 µM)
isolate (source animal id): 201 | 16 (≈ 37.6 µM)
isolate (source animal id): 202 | 8 (≈ 18.8 µM)
isolate (source animal id): 209 | 16 (≈ 37.6 µM)
isolate (source animal id): 211 | 16 (≈ 37.6 µM)
isolate (source animal id): 220 | 16 (≈ 37.6 µM)
isolate (source animal id): 221 | 16 (≈ 37.6 µM)
isolate (source animal id): 223 | 8 (≈ 18.8 µM)
isolate (source animal id): 233 | 16 (≈ 37.6 µM)
isolate (source animal id): 237 | 16 (≈ 37.6 µM)
isolate (source animal id): 241 | 16 (≈ 37.6 µM)
isolate (source animal id): 252 | 16 (≈ 37.6 µM)
isolate (source animal id): 253 | 16 (≈ 37.6 µM)
isolate (source animal id): 259 | > 16
isolate (source animal id): 260 | 16 (≈ 37.6 µM)
isolate (source animal id): 262 | 16 (≈ 37.6 µM)
isolate (source animal id): 282 | > 16
isolate (source animal id): 287 | > 16
isolate (source animal id): 288 | 16 (≈ 37.6 µM)
isolate (source animal id): 291 | 16 (≈ 37.6 µM)
isolate (source animal id): 293 | > 16
isolate (source animal id): 298 | > 16
isolate (source animal id): 299 | > 16
isolate (source animal id): 300 | 8 (≈ 18.8 µM)
isolate (source animal id): 302 | > 16
isolate (source animal id): 304 | > 16
isolate (source animal id): 306 | 16 (≈ 37.6 µM)
isolate (source animal id): 308 | 16 (≈ 37.6 µM)
isolate (source animal id): 309 | 16 (≈ 37.6 µM)
isolate (source animal id): 313 | 16 (≈ 37.6 µM)
isolate (source animal id): 318 | 8 (≈ 18.8 µM)
isolate (source animal id): 320 | 16 (≈ 37.6 µM)
isolate (source animal id): 321 | 16 (≈ 37.6 µM)
isolate (source animal id): 323 | > 16
isolate (source animal id): 324 | 16 (≈ 37.6 µM)
isolate (source animal id): 326 | > 16
isolate (source animal id): 328 | 16 (≈ 37.6 µM)
isolate (source animal id): 329 | 16 (≈ 37.6 µM)
isolate (source animal id): 333 | 16 (≈ 37.6 µM)
isolate (source animal id): 335 | 16 (≈ 37.6 µM)
isolate (source animal id): 338 | 16 (≈ 37.6 µM)
